The experiment concerns the target T1, human mAChR M4 (Homo sapiens, UniProt P08173).
T1 construct: expressed in transfected cells; host or cells: CHO-K1 (American Type Culture Collection), stably expressing hM4 and Gqi5
T1 sequence (P08173 1-479): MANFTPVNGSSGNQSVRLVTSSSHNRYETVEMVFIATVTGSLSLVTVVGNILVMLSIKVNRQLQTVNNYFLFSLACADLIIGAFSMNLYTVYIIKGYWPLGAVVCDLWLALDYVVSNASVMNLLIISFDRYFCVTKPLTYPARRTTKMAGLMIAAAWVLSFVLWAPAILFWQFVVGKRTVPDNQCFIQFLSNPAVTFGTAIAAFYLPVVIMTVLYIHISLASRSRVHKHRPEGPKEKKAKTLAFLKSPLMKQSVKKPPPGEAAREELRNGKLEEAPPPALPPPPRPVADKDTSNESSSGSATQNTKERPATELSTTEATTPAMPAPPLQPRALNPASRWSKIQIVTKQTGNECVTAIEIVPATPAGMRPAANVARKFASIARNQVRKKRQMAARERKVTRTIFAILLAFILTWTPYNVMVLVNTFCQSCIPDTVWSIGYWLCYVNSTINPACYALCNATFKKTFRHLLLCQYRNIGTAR
The experiment can be described thus: mAChR M4 cell-based functional assay: calcium mobilization (Fluo-4, FDSS), potentiation of EC20 acetylcholine response in hM4-Gqi5 CHO-K1 cells. As to conditions: human M4; for Emax at 30 µM: CHO-K1, % ACh maximum at 30 μM; for EC50: potentiation of EC20 acetylcholine response, calcium mobilization. Put shortly: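 Readout is the fluorescence-ratio rise at 1 Hz on FDSS, with PAM activity taken as concentration-dependent enhancement of the EC20 acetylcholine response, fitted four-parameter for EC50/Emax. hM4-Gqi5 CHO-K1 cells carried Fluo-4 AM dye; test compounds (11 points, 1:3) preceded EC20 acetylcholine additions at 144 s and 230 s.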
(Calcium flux is commonly read through the fluorescence of an indicator in the cells.)

As usually defined, the Emax is the greatest response seen or fitted, relative to the assay's reference. What is called EC50 is the concentration needed to bring the measured effect to its halfway point.

In the case of `Cc1c(N2CCc3ncc(-c4ccc(N5CCCCC5)nc4)cc3C2)nn2c(=O)ccnc2c1C` [Compound 1-97, 8,9-dimethyl-7-(3-(6-(piperidin-1-yl)pyridin-3-yl)-7,8-dihydro-1,6-naphthyridin-6(5H)-yl)-4H-pyrimido[1,2-b]pyridazin-4-one], the Emax at 30 µM was 79% and the EC50 is 397 nM.
As to `COc1cnccc1-c1cnc2c(c1)CN(c1nn3c(=O)ccnc3c(C)c1C)CC2` [Compound 1-269, 7-(3-(3-methoxypyridin-4-yl)-7,8-dihydro-1,6-naphthyridin-6(5H)-yl)-8,9-dimethyl-4H-pyrimido[1,2-b]pyridazin-4-one], the Emax at 30 µM turned out to be 88% and the EC50 worked out at 211 nM.
With `Cc1c(N2CCc3ncc(-c4ccccc4OC(F)(F)F)cc3C2)nn2c(=O)ccnc2c1C` [Compound 1-265, 8,9-dimethyl-7-(3-(2-(trifluoromethoxy)phenyl)-7,8-dihydro-1,6-naphthyridin-6(5H)-yl)-4H-pyrimido[1,2-b] pyridazin-4-one], the Emax at 30 µM amounted to 61% and the EC50 came to 929 nM.
Regarding `COc1cc(-c2cnc3c(c2)CN(c2nn4c(=O)ccnc4cc2C)CC3)c(Cl)cn1` [Compound 1-57, 7-(3-(5-chloro-2-methoxypyridin-4-yl)-7,8-dihydro-1,6-naphthyridin-6(5H)-yl)-8-methyl-4H-pyrimido[1,2-b]pyridazin-4-one], the Emax at 30 µM was determined as 70% and the EC50 came out at 735 nM.
Consider `Cc1c(N2CCc3ncc(C(F)(F)F)cc3C2C)nn2c(=O)ccnc2c1C` (single isomer, unassigned) [Compound 1-385, 8,9-dimethyl-7-(5-methyl-3-(trifluoromethyl)-7,8-dihydro-1,6-naphthyridin-6(5H)-yl)-4H-pyrimido[1,2-b] pyridazin-4-one], for which the EC50 is 1730 nM. For the setting “% ACh maximum at 30 μM”, the “Emax (%)*” value is given as 42%.
For `Cc1cc2nc(C(F)F)cc(=O)n2nc1N1CCc2ncc(N3CCOc4ncccc43)cc2C1` [Compound 2-29, 2-(difluoromethyl)-7-(3-(2,3-dihydro-1H-pyrido[2,3-b][1,4]oxazin-1-yl)-7,8-dihydro-1,6-naphthyridin-6(5H)-yl)-8-methyl-4H-pyrimido[1,2-b]pyridazin-4-one], the Emax at 30 µM was 90% and the EC50 worked out at 13 nM.
With `Cc1cncc(-c2cnc3c(c2)CN(c2nn4c(=O)ccnc4c(C)c2C)CC3)c1` [Compound 1-147, 8,9-dimethyl-7-(3-(5-methylpyridin-3-yl)-7,8-dihydro-1,6-naphthyridin-6(5H)-yl)-4H-pyrimido[1,2-b]pyridazin-4-one], the Emax at 30 µM turned out to be 80% and the EC50 came to 305 nM.
For the compound `CCc1ccccc1-c1cnc2c(c1)CN(c1nn3c(=O)ccnc3c(C)c1C)CC2` [Compound 1-342, 7-(3-(2-ethylphenyl)-7,8-dihydro-1,6-naphthyridin-6(5H)-yl)-8,9-dimethyl-4H-pyrimido[1,2-b]pyridazin-4-one], the Emax at 30 µM turned out to be 72% and the EC50 turned out to be 204 nM.
With `COCc1cc(=O)n2nc(N3CCc4ncc(-c5ccncc5)cc4C3)c(C)cc2n1` [Compound 1-362, 2-(methoxymethyl)-8-methyl-7-(3-(pyridin-4-yl)-7,8-dihydro-1,6-naphthyridin-6(5H)-yl)-4H-pyrimido[1,2-b] pyridazin-4-one], the Emax at 30 µM was determined as 78% and the EC50 amounted to 337 nM.
As to `Cc1cc2nccc(=O)n2nc1N1CCc2ncc(Nc3cccc(F)n3)cc2C1` [Compound 2-107, 7-(3-((6-fluoropyridin-2-yl)amino)-7,8-dihydro-1,6-naphthyridin-6(5H)-yl)-8-methyl-4H-pyrimido[1,2-b]pyridazin-4-one], the Emax at 30 µM was determined as 79% and the EC50 is 437 nM.
Take `CCc1cc(=O)n2nc(N3CCc4ncc(C(F)(F)F)cc4C3)c(C)c(C)c2n1` [Compound 1-105, 2-ethyl-8,9-dimethyl-7-(3-(trifluoromethyl)-7,8-dihydro-1,6-naphthyridin-6(5H)-yl)-4H-pyrimido[1,2-b]pyridazin-4-one]: the Emax at 30 µM was 99% and the EC50 is 162 nM.
On to `Cc1cc2nccc(=O)n2nc1N1CCc2ncc(Nc3cc(F)nc(F)c3)cc2C1` [Compound 2-100, 7-(3-((2,6-difluoropyridin-4-yl)amino)-7,8-dihydro-1,6-naphthyridin-6(5H)-yl)-8-methyl-4H-pyrimido[1,2-b]pyridazin-4-one], for which the Emax at 30 µM was found to be 101% and the EC50 came out at 39 nM.
In the case of `Cc1c(N2CCc3ncc(Oc4ccccc4F)cc3C2)nn2c(=O)ccnc2c1C` [Compound 3-3, 7-(3-(2-Fluorophenoxy)-7,8-dihydro-1,6-naphthyridin-6(5H)-yl)-8,9-dimethyl-4H-pyrimido[1,2-b]pyridazin-4-one], the Emax at 30 µM amounted to 96% and the EC50 amounted to 29 nM.
Taken in the same sequence, the figures for `[2H]C1([2H])Cc2ncc(-c3c(C)noc3C)cc2C([2H])([2H])N1c1nn2c(=O)ccnc2cc1C` [Compound 1-450, 7-(3-(3,5-Dimethylisoxazol-4-yl)-7,8-dihydro-1,6-naphthyridin-6(5H)-yl-5,5,7,7-d4)-8-methyl-4H-pyrimido[1,2-b]pyridazin-4-one] were 95% and 291 nM.
As to `Cc1cc(=O)n2nc(N3CCc4ncc(-c5cnn(CC(F)(F)F)c5)cc4C3)c(C)c(C)c2n1` [Compound 1-184, 2,8,9-trimethyl-7-(3-(1-(2,2,2-trifluoroethyl)-1H-pyrazol-4-yl)-7,8-dihydro-1,6-naphthyridin-6(5H)-yl)-4H-pyrimido[1,2-b]pyridazin-4-one], the Emax at 30 µM is 80% and the EC50 was found to be 1260 nM.
As for `COCc1cc(=O)n2nc(N3CCc4ncc(-c5ncc(C)cc5C)cc4C3)c(C)cc2n1` [Compound 1-381, 7-(3-(3,5-dimethylpyridin-2-yl)-7,8-dihydro-1,6-naphthyridin-6(5H)-yl)-2-(methoxymethyl)-8-methyl-4H-pyrimido[1,2-b] pyridazin-4-one], the Emax at 30 µM stood at 83% and the EC50 was 969 nM.
Turning to `Cc1cc(=O)n2nc(N3CCc4ncc(NCc5csc(C)n5)cc4C3)c(C)c(C)c2n1` [Compound 2-50, 2,8,9-trimethyl-7-(3-(((2-methylthiazol-4-yl)methyl)amino)-7,8-dihydro-1,6-naphthyridin-6(5H)-yl)-4H-pyrimido[1,2-b]pyridazin-4-one], the Emax at 30 µM turned out to be 53% and the EC50 was determined as 837 nM.
On to `Cc1c(N2CCc3ncc(N4CCCS4(=O)=O)cc3C2)nn2c(=O)ccnc2c1C` [Compound 2-146, 7-(3-(1,1-dioxidoisothiazolidin-2-yl)-7,8-dihydro-1,6-naphthyridin-6(5H)-yl)-8,9-dimethyl-4H-pyrimido[1,2-b]pyridazin-4-one], for which the Emax at 30 µM was 78% and the EC50 amounted to 1480 nM.
With `COc1ccc(F)c(Nc2cnc3c(c2)CN(c2nn4c(=O)ccnc4cc2C)CC3)c1` [Compound 2-70, 7-(3-((2-fluoro-5-methoxyphenyl)amino)-7,8-dihydro-1,6-naphthyridin-6(5/)-yl)-8-methyl-4H-pyrimido[1,2-b]pyridazin-4-one], the Emax at 30 µM was found to be 94% and the EC50 worked out at 85 nM.
`COCc1cc(=O)n2nc(N3CCc4ncc(-c5cnc(Cl)cc5C)cc4C3)c(C)cc2n1` [Compound 1-357, 7-(3-(6-chloro-4-methylpyridin-3-yl)-7,8-dihydro-1,6-naphthyridin-6(5H)-yl)-2-(methoxymethyl)-8-methyl-4H-pyrimido[1,2-b]pyridazin-4-one]: the Emax at 30 µM stood at 86% and the EC50 turned out to be 383 nM.
On to `COc1ccc(-c2cnc3c(c2)CN(c2nn4c(=O)cc(C(F)F)nc4c(C)c2C)CC3)cn1` [Compound 1-170, 2-(difluoromethyl)-7-(3-(6-methoxypyridin-3-yl)-7,8-dihydro-1,6-naphthyridin-6(5H)-yl)-8,9-dimethyl-4H-pyrimido[1,2-b]pyridazin-4-one], for which the Emax at 30 µM was 95% and the EC50 turned out to be 185 nM.
For `Cc1cc(=O)n2nc(N3CCc4ncc(Nc5ccnn5C)cc4C3)c(C)cc2n1` [Compound 2-20, 2,8-dimethyl-7-(3-((1-methyl-1H-pyrazol-5-yl)amino)-7,8-dihydro-1,6-naphthyridin-6(5H)-yl)-4H-pyrimido[1,2-b]pyridazin-4-one], the Emax at 30 µM turned out to be 88% and the EC50 stood at 166 nM.
With `Cc1ccccc1-c1cnc2c(c1)CN(c1nn3c(=O)ccnc3c(C)c1C)CC2` [Compound 1-222, 8,9-dimethyl-7-(3-(o-tolyl)-7,8-dihydro-1,6-naphthyridin-6(5H)-yl)-4H-pyrimido[1,2-b] pyridazin-4-one], the Emax at 30 µM stood at 83% and the EC50 came out at 74 nM.
Taken in the same sequence, the figures for `COc1ccc(-c2cnc3c(c2)CN(c2nn4c(=O)cc(C(F)(F)F)nc4cc2C)CC3)cn1` [Compound 1-75, 7-(3-(6-methoxypyridin-3-yl)-7,8-dihydro-1,6-naphthyridin-6(5H)-yl)-8-methyl-2-(trifluoromethyl)-4H-pyrimido[1,2-b]pyridazin-4-one] were 46% and 1250 nM.
